US20120009271A1, “METHOD OF DISEASE-INDUCED AND RECEPTOR-MEDIATED STEM CELL NEUROPROTECTION” (MEDICAL COLLEGE OF GEORGIA, priority 2009, published 2012)
Entries after “also recorded” stand apart in the source; their conditions may differ.

Assays:
[1] = test system: cultured human amnion stem cells; experiment: Oxidative stress (H202) in cultured human amnion stem cells, cell survival (Hoechst 33258, trypan blue); format: cell-based; details: pre-treatment with melatonin 100 μM; H202 100 μM at day 4, survival at day 5; versus non-melatonin treated cells
[2] = test system: cultured human amniotic epithelial cells (AECs); experiment: Immunocytochemistry of proliferation and differentiation of cultured AECs with or without melatonin; format: cell-based
Excerpt: This is true for both control cells and cells treated with melatonin.

[3] = in vivo; cited from earlier work
[4] = test system: OGD-exposed primary rat cells; experiment: Oxygen glucose deprivation (OGD) injury model, cell viability (Trypan blue and MTT assay); details: AECs 5,000 per well or melatonin 100 uM; 20,000 rat cells per well
Procedure: To reveal the neuroprotective effects of these stem cells, cultured primary rat cells (gestation age 18) were initially exposed to OGD and immediately thereafter stem cells or conditioned media (harvested from OGD-exposed stem cells over 7 days) were added. Parallel sister cultures included non-OGD exposed rat cells (positive control). Stem cell doses were varied at 0 (negative control), 2.5%, 5%, 10% or 25% of total cell population per well. After 3 hours of stem cell or conditioned media treatment, cell viability (Trypan blue and MTT assay) and ELISA were performed.
Cultured primary rat cells (gestation age 18) were initially exposed to the oxygen glucose deprivation (OGD) injury model (92% N2 and 8% O2 gas for 90 minutes), and immediately thereafter AECs, AMCs or conditioned media (harvested from AECs or AMCs cultured over 7 days) were added to the OGD-exposed cells. Parallel sister cultures included non-OGD exposed rat cells (positive control). Placenta cell doses were varied at 0 (negative control), 2.5%, 5%, 10% or 25% of total cell population per well. After 3 hours of placenta cell or conditioned media treatment, cell viability (Trypan blue and MTT assay) and ELISA were performed.
Cultured primary rat cells (gestation age 18; 20,0000 cells per well) were initially exposed to the OGD injury model (92% N2 and 8% 02 gas for 90 minutes). […]

In the case of `COc1ccc2[nH]cc(CCNC(C)=O)c2c1` [melatonin, N-acetyl-5-methoxytryptamine], the “cell survival after oxidative stress” value [1] is reported as “protected against cell death; also recorded: significantly greater”, the “total TuJ1 positive cells in 5 fields (dendrite +/-)” value ([2]; 100 μM Melatonin versus control, FIG. 14A) is reported as “increased the total number of cells expressing Tull” and the “total nestin positive or nestin/MelR1 positive cells in 5 fields” value ([2]; 100 μM Melatonin versus control, FIG. 14B) is reported as “increases the total number of nestin positive or nestin/MelR1 positive expressing cells”. The “neural differentiation (TuJ1 and GFAP) of melatonin receptor 1-expressing AECs” value ([2]; melatonin in growth media) was “enhanced neural differentiation”, the “proliferation of melatonin receptor 1-expressing AECs” value ([2]; melatonin in growth media) was “dose-dependently suppressed proliferation” and the half life [3] was 30 to 53 min. The “neuroprotection against experimental stroke (OGD), single treatment” value [4] was “exerted neuroprotection”.
